# Results: patent publication US8530387B2, “Dithiinopyridazinone derivatives” (Bayer CropScience AG, priority 2010, dated 2013)
# Columns and labels:
# Puccinia recondita = assay: Puccinia test (wheat)/protective; assay type: in vivo; conditions: young wheat plants, protective spray, 1500 ppm, evaluation 7-9 days following inoculation
# Source text: Puccinia Test (Wheat)/Protective • Solvent: 49 parts by weight of N,N-dimethylformamide • Emulsifier: 1 part by weight of alkylaryl polyglycol ether An appropriate preparation of active compound is produced by mixing 1 part by weight of active compound with the stated amounts of solvent and emulsifier and diluting the concentrate with water to the desired concentration. To test for protective activity, young wheat plants are sprayed with the preparation of active compound at the stated application rate. […] Subsequently the plants stand at 80% relative humidity and at a temperature of 20° C. After 7-9 days following inoculation, evaluation takes place.
# [1] = logP by HPLC on reversed-phase column (C18), EEC Directive 79/831 Annex V.A8; assay type: physicochemical; conditions: for Log P: pH 2.7
# Description: The logP values reported in the preparation examples and tables above are determined in accordance with EEC Directive 79/831 Annex V.A8 by means of HPLC (High Performance Liquid Chromatography) on a reversed-phase column (C18). Temperature: 43° C. […] Calibration takes place using unbranched alkan-2-ones (having 3 to 16 carbon atoms) of which the logP values are known (logP values determined on the basis of the retention times, by linear interpolation between two successive alkanones). The lambda-max values were determined on the basis of the UV spectra from 200 nm to 400 nm in the maxima of the chromatographic signals.
# Alternaria solani = assay: Alternaria test (tomato)/protective; assay type: in vivo; conditions: young tomato plants, protective spray, 1500 ppm, evaluation 7 days following inoculation
# Source text: Alternaria Test (Tomato)/Protective • Solvent: 49 parts by weight of N,N-dimethylformamide • Emulsifier: 1 part by weight of alkylaryl polyglycol ether An appropriate preparation of active compound is produced by mixing 1 part by weight of active compound with the stated amounts of solvent and emulsifier and diluting the concentrate with water to the desired concentration. To test for protective activity, young tomato plants are sprayed with the preparation of active compound at the stated application rate. […] Subsequently the plants stand at 96% relative humidity and a temperature of 20° C. After 7 days following inoculation, evaluation takes place.
# Venturia inaequalis = assay: Venturia test (apple)/protective; assay type: in vivo; conditions: young apple plants, protective spray, 250 ppm, evaluation 10 days following inoculation
# Description: Venturia Test (Apple)/Protective […] An appropriate preparation of active compound is produced by mixing 1 part by weight of active compound with the stated amounts of solvent and emulsifier and diluting the concentrate with water to the desired concentration. To test for protective activity, young plants are sprayed with the preparation of active compound at the stated application rate. […] Subsequently the plants are placed in a greenhouse at approximately 21° C. and approximately 90% humidity. After 10 days following inoculation, evaluation takes place.
# Plasmopara viticola = assay: Plasmopara test (grapevine)/protective; assay type: in vivo; conditions: young grapevine plants, protective spray, 250 ppm, evaluation 6 days following inoculation
# Phytophthora infestans = assay type: in vivo; conditions: young tomato plants, protective spray, 1500 ppm, evaluation 7 days following inoculation
Structure (SMILES),Efficacy in % (Puccinia recondita),Log P [1],Efficacy in % (Alternaria solani),Efficacy in % (Venturia inaequalis),Efficacy in % (Plasmopara viticola),Efficacy in % (Phytophthora infestans),"chromatographic logP ([1]; HPLC, C18, 43° C., acidic range pH 2.7 (0.1% aqueous formic acid/acetonitrile), read-out: Log P)"
Cn1c(=O)c2c(c(=O)n1C)SC(C#N)=C(C#N)S2 [Compound 1],90%,1.39,–,–,–,–,–
"N#CC1=C(C#N)Sc2c(c(=O)n3n(c2=O)CCCC3)S1 [Compound 2, 5,12-dioxo-5,7,8,9,10,12-hexahydro[1,4]dithiino[2,3-d]pyridazino[1,2-a]pyridazine-2,3-dicarbonitrile]",95%,–,93%,89%,100%,88%,1.74
CCn1c(=O)c2c(c(=O)n1CC)SC(C#N)=C(C#N)S2 [Compound 3],95%,2.05,86%,–,–,75%,–
CCCn1c(=O)c2c(c(=O)n1CCC)SC(C#N)=C(C#N)S2 [Compound 4],95%,2.80,93%,–,–,94%,–
CCCn1c(=O)c2c(c(=O)n1CC)SC(C#N)=C(C#N)S2 [Compound 5],95%,2.46,93%,95%,95%,94%,–
N#CC1=C(C#N)Sc2c(c(=O)n3n(c2=O)CCOCC3)S1 [Compound 6],95%,1.51,86%,–,–,75%,–
CCCn1c(=O)c2c(c(=O)n1C)SC(C#N)=C(C#N)S2 [Compound 7],80%,2.08,93%,–,–,88%,–
N#CC1=C(C#N)Sc2c(c(=O)n3n(c2=O)CCC3)S1 [Compound 8],95%,1.20,86%,–,–,75%,–
CCn1c(=O)c2c(c(=O)n1C)SC(C#N)=C(C#N)S2 [Compound 9],95%,1.72,86%,86%,93%,94%,–
Cn1c(=O)c2c(c(=O)n1C)Sc1c(c(=O)n(C)n(C)c1=O)S2 [Compound 10],–,0.74,–,–,–,–,–
